In US8697385B1, “Protein controlling synthesis of collagen and associated methods” (Florida State University Research Foundation, Inc., priority 2009, dated 2014):

Experiments:
scleroderma fibroblasts = assay: Apoptosis of primary scleroderma fibroblasts; assay type: cell-based; details: ML-7 did not have an effect
Source text: To assess the role of nonmuscle myosin in collagen synthesis, we disrupted nonmuscle myosin filaments in two different cell types: primary human lung fibroblasts and primary scleroderma skin fibroblasts. These cells are responsible for lung and skin fibrosis. […] To assess the effect of ML-7 on collagen protein synthesis and secretion, we analyzed the levels of collagen α1(I) and α2(I) polypeptides in the intracellularly space and in the medium using Western blot analysis and chain-specific antibodies.^12,15,31-33 ML-7 treatment profoundly affected the secretion of type I collagen, but the effect differed in the two types of primary fibroblasts. […] To assess if the secreted α1(I) polypeptides had been secreted as disulfide-bonded homotrimers, we performed Western blot analysis under nonreducing conditions (FIG. 3d). […] However, since α2(I) polypeptide was absent in the cell medium of ML-7-treated cells, the bands must represent disulfide-bonded collagen α1(I) chains. The α2(I) antibody could not recognize the polypeptide under nonreducing conditions, so we could not directly test its presence in S—S bonded collagen. Since there are reports that ML-7 can cause apoptosis of epithelial cells, we tested if ML-7 caused apoptosis of the primary fibroblasts. […] Therefore, we concluded that increased apoptosis is not responsible for the observed effects of ML-7. […]

[1] = test system: lung fibroblasts and scleroderma fibroblasts; assay: Intracellular collagen degradation with proteosome inhibitor epoxomycin, Western blot; assay type: cell-based, human
Source text: FIG. 3 Disruption of nonmuscle myosin by ML-7 results in secretion of homotrimeric type I collagen. (a) ML-7 disrupts nonmuscle myosin filaments. Immunostaining of nonmuscle myosin IIB in control lung fibroblasts (CON) and in lung fibroblasts treated with ML-7 (ML-7). […] Western blot analysis of control cells (lane 1) and cells treated with ML-7 (lane 2) using anti-myosin IIB antibody (MYO IIB). Fibronectin (FIB), loading control. (c) Effect of ML-7 on collagen secretion from lung fibroblasts. Western blot analysis of cellular proteins from control cells (lane 2) and ML-7-treated cells (lane 1), and of medium proteins from control cells (lane 4) and ML-7-treated cells (lane 3). COL1A1, collagen α1(I) polypeptide; COL1A2, collagen α2(I) polypeptide; FIB, fibronectin as loading control. […] The medium samples from (c) were analyzed under reducing conditions (lanes 1 and 2) and nonreducing conditions […] with antibody specific for collagen α1(I) polypeptide. […] Intracellular collagen was analyzed by Western blot analysis using antibodies against collagen α1(I) polypeptide (COL1A1) and α2(I) polypeptide (COL1A2). […]
Protein concentration was estimated by the Bradford assay, with bovine serum albumin as standard.^51 Western blot analyses of cellular proteins were performed using 50 μg of protein. […] The medium was collected, and an aliquot was analyzed directly by Western blot analysis. […]

## O=S(=O)(c1cccc2c(I)cccc12)N1CCCNCC1 [ML-7]
Scleroderma fibroblasts
  percentage of apoptotic cells: 0.3%
[1]; ML-7 in combination with epoxomycin vs epoxomycin alone, lung and scleroderma fibroblasts
  intracellular level of both collagen polypeptides: significantly increased
[1]; epoxomycin and ML-7, not seen with epoxomycin alone
  additional (degradation) product of approximately 120 kDa: prominently seen
